According to patent US9657057B2, “Dipeptide and tripeptide epoxy ketone protease inhibitors” (Onyx Therapeutics, Inc., priority 2013, dated 2017):
In brackets after ≈: the same amount, converted by molar mass.

Legend:
[1] = molecular target: i20S (20S immunoproteasome) (Homo sapiens, UniProt P20618+P28062); test: 20S proteasome assay, chymotrypsin-like activity (LLVY), i20S; assay type: biochemical; conditions: LLVY i20S Hu 1 h CONT: IC50 (nM), succinyl-Leu-Leu-Val-Tyr-AMC
Text: (§1) Assay buffer consisted of TE buffer [20 mmol/L Tris (pH 8.0), 0.5 mmol/L EDTA] with (20S) or without (cell lysate) 0.03% SDS. Reactions were initiated by enzyme or lysate addition and monitored for AMC product formation at 27jC with a plate-based spectofluorometer (Tecan).

β5 = molecular target: T1, β5 (Homo sapiens, UniProt P20618+P28074); test: ProCISE proteasome subunit assay, β5; assay type: biochemical; conditions: MOLT4 lysate Hu 1 h
T1 construct: endogenous in cells; host or cells: MOLT-4
Experimental: (§2) This assay was used to assess the inhibitory activity against each of LMP2, LMP7, MECL1, β1, β2, and β5. Briefly, test compounds were serially diluted in DMSO at 100× concentration, then diluted to 10× in aqueous hypotonic lysis buffer. Lysate from the human acute lymphoblastic leukemia cell line, MOLT-4, was treated for 1 hour at 25° C. with compound at a final 1× concentration. […] Following this, lysate was denatured in guanidine hydrochloride, and subunits bound to probe were isolated with streptavidin-conjugated sepharose beads. Individual subunits were probed with subunit-specific primary antibodies, followed by HRP-conjugated secondary antibodies. A chemiluminescent substrate was used to generate signal associated with HRP binding, which was detected on a plate reader. Luminescent signal was normalized to protein content, then, percent activity calculated relative to DMSO-treated controls to generate IC50 curves.

LMP7 = molecular target: T2, LMP7 (Homo sapiens, UniProt P20618+P28062); test: ProCISE proteasome subunit assay, LMP7; assay type: biochemical; conditions: MOLT4 lysate Hu 1 h
T2 construct: endogenous in cells; host or cells: MOLT-4
Experimental: as §2

[2] = molecular target: c20S (constitutive 20S proteasome) (Homo sapiens, UniProt P20618+P28074); test: 20S proteasome assay, chymotrypsin-like activity (LLVY), c20S; assay type: biochemical; conditions: LLVY c20S Hu 1 h CONT: IC50 (nM), succinyl-Leu-Leu-Val-Tyr-AMC
Text: as §1

Solubility pH 7 = assay type: physicochemical; conditions: pH 7, aqueous buffer

Structure (SMILES) | IC50 [1] | IC50 (β5) | IC50 (LMP7) | IC50 [2] | solubility (Solubility pH 7)
COc1ccc(C[C@H](NC(=O)[C@H](C)NC(=O)C(C)(F)F)C(=O)N[C@@H](Cc2ccccc2)C(=O)[C@@]2(C)CO2)cc1 [Compound C-2006] | 6.1 nM | 0.18 µM | 0.0344 µM | 29 nM | 
COc1ccc(C[C@H](NC(=O)[C@H](CO)NC(C)=O)C(=O)N[C@@H](Cc2ccccc2)C(=O)[C@@]2(C)CO2)cc1 [Compound C-2007, (S)-2-acetamido-3-hydroxy-N—((S)-3-(4-methoxyphenyl)-1-(((S)-1-((R)-2-methyloxiran-2-yl)-1-oxo-3-phenylpropan-2-yl)amino)-1-oxopropan-2-yl)propanamide] | 118 nM | 0.478 µM | 0.211 µM | 432 nM | 0.729 mg/mL (≈ 1420 µM)
COc1ccc(C[C@H](NC(=O)[C@H](C)NC(=O)C(F)(F)F)C(=O)N[C@@H](Cc2ccccc2)C(=O)[C@@]2(C)CO2)cc1 [Compound C-2011, (S)-3-(4-Methoxyphenyl)-N—((S)-1-((R)-2-methyloxiran-2-yl)-1-oxo-3-phenylpropan-2-yl)-2-((S)-2-(2,2,2-trifluoroacetamido)propanamido)propanamide] | 13.5 nM | 0.342 µM | 0.0971 µM | 68.6 nM | 
COCOCCC(=O)N[C@@H](C)C(=O)N[C@@H](Cc1ccc(OC)cc1)C(=O)N[C@@H](Cc1ccccc1)C(=O)[C@@]1(C)CO1 [Compound C-2013, (S)-2-((S)-2-(3-(methoxymethoxy)propanamido)propanamido)-3-(4-methoxyphenyl)-N—((S)-1-((R)-2-methyloxiran-2-yl)-1-oxo-3-phenylpropan-2-yl)propanamide] | 40.2 nM | 0.359 µM | 0.0667 µM | 117 nM | 0.725 mg/mL (≈ 1270 µM)
COc1ccc(C[C@H](NC(=O)[C@H](C)NC(=O)Cc2cc(C)no2)C(=O)N[C@@H](CC2CCCC2)C(=O)[C@@]2(C)CO2)cc1 [Compound C-2014, (S)—N—((S)-3-cyclopentyl-1-((R)-2-methyloxiran-2-yl)-1-oxopropan-2-yl)-3-(4-methoxyphenyl)-2-((S)-2-(2-(3-methylisoxazol-5-yl)acetamido)propanamido)propanamide] | 16.6 nM | 0.372 µM | 0.0564 µM | 45.7 nM | 
COc1ccc(C[C@H](NC(=O)[C@@H](C)NC(=O)Cc2cc(C)no2)C(=O)N[C@@H](CC2CCCC2)C(=O)[C@@]2(C)CO2)cc1 [Compound C-2015, (S)—N—((S)-3-cyclopentyl-1-((R)-2-methyloxiran-2-yl)-1-oxopropan-2-yl)-3-(4-methoxyphenyl)-2-((R)-2-(2-(3-methylisoxazol-5-yl)acetamido)propanamido)propanamide] | 2920 nM | 30.4 µM | 3.06 µM | 18600 nM | 0.169 mg/mL (≈ 298 µM)
COCCC(=O)N[C@H](C)C(=O)N[C@@H](Cc1ccc(OC)cc1)C(=O)N[C@@H](CC1CCCC1)C(=O)[C@@]1(C)CO1 [Compound C-2018, (S)—N—((S)-3-cyclopentyl-1-((R)-2-methyloxiran-2-yl)-1-oxopropan-2-yl)-3-(4-methoxyphenyl)-2-((R)-2-(3-methoxypropanamido)propanamido)propanamide] | 570 nM | 34.9 µM | 1.18 µM | 12800 nM | 0.129 mg/mL (≈ 243 µM)
CCOCC(=O)N[C@H](C)C(=O)N[C@@H](Cc1ccc(OC)cc1)C(=O)N[C@@H](CC1CCCC1)C(=O)[C@@]1(C)CO1 [Compound C-2021, (S)—N—((S)-3-cyclopentyl-1-((R)-2-methyloxiran-2-yl)-1-oxopropan-2-yl)-2-((R)-2-(2-ethoxyacetamido)propanamido)-3-(4-methoxyphenyl)propanamide] | 1220 nM | 30.8 µM | 1.89 µM | 99000 nM | 0.103 mg/mL (≈ 193 µM)
COc1ccc(C[C@H](NC(=O)[C@H](C)NC(=O)c2cc(C)no2)C(=O)N[C@@H](CC2CCCC2)C(=O)[C@@]2(C)CO2)cc1 [Compound C-2022, N—((S)-1-(((S)-1-(((S)-3-cyclopentyl-1-((R)-2-methyloxiran-2-yl)-1-oxopropan-2-yl)amino)-3-(4-methoxyphenyl)-1-oxopropan-2-yl)amino)-1-oxopropan-2-yl)-3-methylisoxazole-5-carboxamide] | 23.5 nM | 0.429 µM | 0.195 µM | 65.3 nM | 0.0847 mg/mL (≈ 153 µM)
COc1ccc(C[C@H](NC(=O)[C@@H](C)NC(=O)c2cc(C)no2)C(=O)N[C@@H](CC2CCCC2)C(=O)[C@@]2(C)CO2)cc1 [Compound C-2023, N—((R)-1-(((S)-1-(((S)-3-cyclopentyl-1-((R)-2-methyloxiran-2-yl)-1-oxopropan-2-yl)amino)-3-(4-methoxyphenyl)-1-oxopropan-2-yl)amino)-1-oxopropan-2-yl)-3-methylisoxazole-5-carboxamide] | 55.3 nM | 2.69 µM | 0.318 µM | 857 nM | 0.101 mg/mL (≈ 181 µM)
COc1ccc(C[C@H](NC(=O)[C@@H](C)NC(=O)c2cnc(C)s2)C(=O)N[C@@H](CC2CCCC2)C(=O)[C@@]2(C)CO2)cc1 [Compound C-2026, N—((R)-1-(((S)-1-(((S)-3-cyclopentyl-1-((R)-2-methyloxiran-2-yl)-1-oxopropan-2-yl)amino)-3-(4-methoxyphenyl)-1-oxopropan-2-yl)amino)-1-oxopropan-2-yl)-2-methylthiazole-5-carboxamide] | 64.6 nM | 3.45 µM | 0.17 µM | 1360 nM | 0.126 mg/mL (≈ 221 µM)
COc1ccc(C[C@H](NC(=O)[C@H](C)NC(=O)CC(C)(C)O)C(=O)N[C@@H](CC2CCCC2)C(=O)[C@@]2(C)CO2)cc1 [Compound C-2027, N—((S)-1-(((S)-1-(((S)-3-cyclopentyl-1-((R)-2-methyloxiran-2-yl)-1-oxopropan-2-yl)amino)-3-(4-methoxyphenyl)-1-oxopropan-2-yl)amino)-1-oxopropan-2-yl)-3-hydroxy-3-methylbutanamide] | 470 nM | 3.6 µM | 0.618 µM | 2130 nM | 0.753 mg/mL (≈ 1380 µM)
COc1ccc(C[C@H](NC(=O)[C@@H](C)NC(=O)CC(C)(C)O)C(=O)N[C@@H](CC2CCCC2)C(=O)[C@@]2(C)CO2)cc1 [Compound C-2028, N—((R)-1-(((S)-1-(((S)-3-cyclopentyl-1-((R)-2-methyloxiran-2-yl)-1-oxopropan-2-yl)amino)-3-(4-methoxyphenyl)-1-oxopropan-2-yl)amino)-1-oxopropan-2-yl)-3-hydroxy-3-methylbutanamide] | 11.9 nM | 1.16 µM | 0.0757 µM | 323 nM | 0.776 mg/mL (≈ 1420 µM)
COc1ccc(C[C@H](NC(=O)[C@@H](C)NC(=O)c2ccno2)C(=O)N[C@@H](CC2CCCC2)C(=O)[C@@]2(C)CO2)cc1 [Compound C-2041, N—((R)-1-(((S)-1-(((S)-3-cyclopentyl-1-((R)-2-methyloxiran-2-yl)-1-oxopropan-2-yl)amino)-3-(4-methoxyphenyl)-1-oxopropan-2-yl)amino)-1-oxopropan-2-yl)isoxazole-5-carboxamide] | 1400 nM |  |  | 9800 nM | 0.0659 mg/mL (≈ 122 µM)
COc1ccc(C[C@H](NC(=O)[C@H](CN2CCOCC2)NC(=O)c2cc(C)no2)C(=O)N[C@@H](CC2CCCC2)C(=O)[C@@]2(C)CO2)cc1 [Compound C-2044, N—((S)-1-(((S)-1-(((S)-3-cyclopentyl-1-((R)-2-methyloxiran-2-yl)-1-oxopropan-2-yl)amino)-3-(4-methoxyphenyl)-1-oxopropan-2-yl)amino)-3-morpholino-1-oxopropan-2-yl)-3-methylisoxazole-5-carboxamide] | 1600 nM |  |  | 286 nM | 0.131 mg/mL (≈ 204 µM)
COc1ccc(C[C@H](NC(=O)[C@@H](NC(=O)OCc2ccccc2)C2(O)CC2)C(=O)N[C@@H](Cc2ccccc2)C(=O)[C@@]2(C)CO2)cc1 [Compound C-2046, Benzyl ((S)-1-(1-hydroxycyclopropyl)-2-(((S)-3-(4-methoxyphenyl)-1-(((S)-1-((R)-2-methyloxiran-2-yl)-1-oxo-3-phenylpropan-2-yl)amino)-1-oxopropan-2-yl)amino)-2-oxoethyl)carbamate] | 5.2 nM |  |  | 7.9 nM | 0.0107 mg/mL (≈ 17 µM)
COc1ccc(C[C@H](NC(=O)[C@]2(C)CCC(=O)N2)C(=O)N[C@@H](Cc2ccccc2)C(=O)[C@@]2(C)CO2)cc1 [Compound C-3011, (S)—N—((S)-3-(4-methoxyphenyl)-1-(((S)-1-((R)-2-methyloxiran-2-yl)-1-oxo-3-phenylpropan-2-yl)amino)-1-oxopropan-2-yl)-2-methyl-5-oxopyrrolidine-2-carboxamide] | 4550 nM |  |  | 3320 nM | 1.23 mg/mL (≈ 2420 µM)
